The values that follow come from ChEMBL document CHEMBL4507281, “Data for DCP probe BI-4394” (2021).

SMILES strings stand for the structures.

Settings in all cases: Compound concentration 10.0 uM
Assay [1] concerns the target MAP kinase-activated protein kinase 2 (Homo sapiens) (UniProt P49137).
Assay [2] deals with Ephrin type-A receptor 2 (Homo sapiens) (UniProt P29317).
Assay [3] concerns the target T1, Activin receptor type-1B (Homo sapiens) (UniProt P36896).
T1 sequence (whole entry): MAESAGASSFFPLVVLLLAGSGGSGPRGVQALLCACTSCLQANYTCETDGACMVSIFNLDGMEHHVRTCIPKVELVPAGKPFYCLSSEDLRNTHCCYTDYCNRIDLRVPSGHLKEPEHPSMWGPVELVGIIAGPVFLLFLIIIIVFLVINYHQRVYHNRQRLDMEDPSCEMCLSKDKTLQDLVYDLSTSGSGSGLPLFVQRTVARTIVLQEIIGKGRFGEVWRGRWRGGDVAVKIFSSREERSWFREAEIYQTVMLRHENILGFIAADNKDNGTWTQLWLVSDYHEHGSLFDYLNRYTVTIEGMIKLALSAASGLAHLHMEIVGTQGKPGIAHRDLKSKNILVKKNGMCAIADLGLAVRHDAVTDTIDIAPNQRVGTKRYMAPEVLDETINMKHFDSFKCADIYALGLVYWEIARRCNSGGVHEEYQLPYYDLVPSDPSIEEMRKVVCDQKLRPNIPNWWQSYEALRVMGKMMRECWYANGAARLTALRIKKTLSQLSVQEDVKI

For assay [4], the target named is T2, Serine/threonine-protein kinase Nek1 (Homo sapiens) (UniProt Q96PY6).
T2 sequence (whole entry): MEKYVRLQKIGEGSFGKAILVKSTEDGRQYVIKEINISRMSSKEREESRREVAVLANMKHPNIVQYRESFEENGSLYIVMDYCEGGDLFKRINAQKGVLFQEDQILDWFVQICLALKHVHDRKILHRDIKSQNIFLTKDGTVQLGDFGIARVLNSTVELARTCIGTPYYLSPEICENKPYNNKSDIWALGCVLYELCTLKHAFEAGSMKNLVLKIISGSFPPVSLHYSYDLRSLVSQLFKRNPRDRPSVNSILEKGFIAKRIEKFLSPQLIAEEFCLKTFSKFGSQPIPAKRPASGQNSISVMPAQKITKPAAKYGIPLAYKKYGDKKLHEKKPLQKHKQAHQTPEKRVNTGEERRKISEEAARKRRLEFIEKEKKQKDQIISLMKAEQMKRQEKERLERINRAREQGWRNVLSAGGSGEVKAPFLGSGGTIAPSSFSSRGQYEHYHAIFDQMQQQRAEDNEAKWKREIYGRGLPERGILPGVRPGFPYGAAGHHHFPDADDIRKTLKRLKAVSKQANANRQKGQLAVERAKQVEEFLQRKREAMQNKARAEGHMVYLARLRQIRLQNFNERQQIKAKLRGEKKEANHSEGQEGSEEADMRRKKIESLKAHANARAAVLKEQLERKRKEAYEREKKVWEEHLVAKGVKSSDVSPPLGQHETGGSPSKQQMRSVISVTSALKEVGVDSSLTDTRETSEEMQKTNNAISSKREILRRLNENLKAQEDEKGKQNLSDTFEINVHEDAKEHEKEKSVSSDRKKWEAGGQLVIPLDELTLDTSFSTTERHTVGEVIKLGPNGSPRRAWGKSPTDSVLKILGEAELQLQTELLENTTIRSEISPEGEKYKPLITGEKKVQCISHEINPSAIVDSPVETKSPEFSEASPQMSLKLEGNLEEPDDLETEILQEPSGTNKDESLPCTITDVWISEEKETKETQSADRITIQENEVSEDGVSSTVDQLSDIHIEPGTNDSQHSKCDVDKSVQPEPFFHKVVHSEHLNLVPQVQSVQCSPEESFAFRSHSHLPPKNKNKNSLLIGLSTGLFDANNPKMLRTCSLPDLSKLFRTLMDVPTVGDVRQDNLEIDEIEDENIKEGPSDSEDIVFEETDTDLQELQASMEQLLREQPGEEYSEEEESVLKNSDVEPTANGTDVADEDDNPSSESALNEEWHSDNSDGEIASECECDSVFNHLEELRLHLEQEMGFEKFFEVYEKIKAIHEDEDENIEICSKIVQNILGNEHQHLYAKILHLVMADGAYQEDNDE

Assay [5] addresses Alpha-2A adrenergic receptor (Homo sapiens) (UniProt P08913).
Assay [6] concerns the target Mitogen-activated protein kinase 8 (Homo sapiens) (UniProt P45983).
Assay [7] concerns the target Glycogen synthase kinase-3 beta (Homo sapiens) (UniProt P49841).
The target of assay [8] is Rho-associated protein kinase 2 (Homo sapiens) (UniProt O75116).
Sequence of Rho-associated protein kinase 2 (Homo sapiens) (O75116 whole entry, looked up): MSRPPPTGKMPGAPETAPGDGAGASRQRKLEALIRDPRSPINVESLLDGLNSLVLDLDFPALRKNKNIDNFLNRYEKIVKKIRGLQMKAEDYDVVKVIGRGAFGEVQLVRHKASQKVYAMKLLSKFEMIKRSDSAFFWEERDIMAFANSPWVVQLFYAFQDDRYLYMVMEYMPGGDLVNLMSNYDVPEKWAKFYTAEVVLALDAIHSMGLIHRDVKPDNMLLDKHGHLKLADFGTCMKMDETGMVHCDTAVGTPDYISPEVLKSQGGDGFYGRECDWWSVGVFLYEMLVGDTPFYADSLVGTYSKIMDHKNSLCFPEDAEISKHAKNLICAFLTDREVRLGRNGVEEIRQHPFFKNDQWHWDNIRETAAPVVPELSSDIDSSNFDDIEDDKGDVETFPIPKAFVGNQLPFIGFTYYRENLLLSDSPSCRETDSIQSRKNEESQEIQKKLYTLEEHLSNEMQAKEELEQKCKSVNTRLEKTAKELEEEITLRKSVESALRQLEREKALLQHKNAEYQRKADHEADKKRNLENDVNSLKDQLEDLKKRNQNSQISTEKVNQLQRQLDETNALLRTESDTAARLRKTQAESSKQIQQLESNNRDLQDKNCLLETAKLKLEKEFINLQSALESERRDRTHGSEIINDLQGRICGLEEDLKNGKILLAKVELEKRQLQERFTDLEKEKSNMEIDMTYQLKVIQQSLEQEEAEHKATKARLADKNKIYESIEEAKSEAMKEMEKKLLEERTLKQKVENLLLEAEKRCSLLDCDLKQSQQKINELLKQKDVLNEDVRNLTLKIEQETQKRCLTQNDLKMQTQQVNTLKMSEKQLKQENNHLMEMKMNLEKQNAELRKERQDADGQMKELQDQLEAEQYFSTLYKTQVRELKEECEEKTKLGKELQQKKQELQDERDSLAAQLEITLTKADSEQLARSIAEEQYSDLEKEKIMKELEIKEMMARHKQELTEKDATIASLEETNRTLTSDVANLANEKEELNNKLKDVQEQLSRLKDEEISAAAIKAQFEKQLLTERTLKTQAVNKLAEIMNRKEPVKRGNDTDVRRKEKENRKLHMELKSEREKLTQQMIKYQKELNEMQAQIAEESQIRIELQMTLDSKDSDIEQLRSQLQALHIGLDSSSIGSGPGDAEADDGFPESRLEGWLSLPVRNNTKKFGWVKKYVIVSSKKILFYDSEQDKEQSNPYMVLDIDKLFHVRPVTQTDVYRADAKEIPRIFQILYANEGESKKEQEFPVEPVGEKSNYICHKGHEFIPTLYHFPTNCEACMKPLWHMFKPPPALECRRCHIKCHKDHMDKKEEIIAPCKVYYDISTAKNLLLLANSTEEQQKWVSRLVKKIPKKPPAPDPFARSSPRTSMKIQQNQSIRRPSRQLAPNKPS
The target in assay [9] is Vascular endothelial growth factor receptor 2 (Homo sapiens) (UniProt P35968).
In assay [10] the target is AMP-activated protein kinase (AMPK) alpha-1/beta-1/gamma-1 (Homo sapiens) (UniProt P54619+Q9Y478+Q13131).
For assay [11], the target named is Beta-1 adrenergic receptor (Homo sapiens) (UniProt P08588).
Sequence of Beta-1 adrenergic receptor (Homo sapiens) (P08588 whole entry, looked up): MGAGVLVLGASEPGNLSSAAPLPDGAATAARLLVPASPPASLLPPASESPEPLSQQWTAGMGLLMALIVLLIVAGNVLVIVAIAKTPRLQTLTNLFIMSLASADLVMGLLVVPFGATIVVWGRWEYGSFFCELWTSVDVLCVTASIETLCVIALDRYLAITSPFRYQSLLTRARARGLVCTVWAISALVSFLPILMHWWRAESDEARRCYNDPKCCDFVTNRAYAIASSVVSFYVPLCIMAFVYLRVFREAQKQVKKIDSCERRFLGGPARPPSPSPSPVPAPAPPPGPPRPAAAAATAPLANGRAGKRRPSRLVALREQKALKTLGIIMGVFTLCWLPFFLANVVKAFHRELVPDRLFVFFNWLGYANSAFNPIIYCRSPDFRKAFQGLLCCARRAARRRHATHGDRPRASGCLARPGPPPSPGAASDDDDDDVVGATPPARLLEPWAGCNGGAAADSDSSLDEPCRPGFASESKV
The target in assay [12] is RAC-alpha serine/threonine-protein kinase (Homo sapiens) (UniProt P31749).
Sequence of RAC-alpha serine/threonine-protein kinase (Homo sapiens) (P31749 whole entry): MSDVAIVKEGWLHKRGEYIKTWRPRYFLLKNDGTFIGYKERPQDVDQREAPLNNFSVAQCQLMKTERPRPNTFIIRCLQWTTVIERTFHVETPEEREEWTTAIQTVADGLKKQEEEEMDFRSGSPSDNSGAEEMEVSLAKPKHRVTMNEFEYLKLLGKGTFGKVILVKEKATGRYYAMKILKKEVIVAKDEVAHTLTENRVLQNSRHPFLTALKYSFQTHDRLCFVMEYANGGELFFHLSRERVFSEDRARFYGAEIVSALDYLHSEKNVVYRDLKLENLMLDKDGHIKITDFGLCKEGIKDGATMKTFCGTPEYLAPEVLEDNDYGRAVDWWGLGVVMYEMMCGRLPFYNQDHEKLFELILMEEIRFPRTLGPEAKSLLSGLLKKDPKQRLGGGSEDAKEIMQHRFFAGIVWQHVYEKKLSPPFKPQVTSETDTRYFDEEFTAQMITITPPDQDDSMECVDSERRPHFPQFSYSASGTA
Assay [13] addresses T3, Serine/threonine-protein kinase Chk1 (Homo sapiens) (UniProt O14757).
T3 sequence (whole entry): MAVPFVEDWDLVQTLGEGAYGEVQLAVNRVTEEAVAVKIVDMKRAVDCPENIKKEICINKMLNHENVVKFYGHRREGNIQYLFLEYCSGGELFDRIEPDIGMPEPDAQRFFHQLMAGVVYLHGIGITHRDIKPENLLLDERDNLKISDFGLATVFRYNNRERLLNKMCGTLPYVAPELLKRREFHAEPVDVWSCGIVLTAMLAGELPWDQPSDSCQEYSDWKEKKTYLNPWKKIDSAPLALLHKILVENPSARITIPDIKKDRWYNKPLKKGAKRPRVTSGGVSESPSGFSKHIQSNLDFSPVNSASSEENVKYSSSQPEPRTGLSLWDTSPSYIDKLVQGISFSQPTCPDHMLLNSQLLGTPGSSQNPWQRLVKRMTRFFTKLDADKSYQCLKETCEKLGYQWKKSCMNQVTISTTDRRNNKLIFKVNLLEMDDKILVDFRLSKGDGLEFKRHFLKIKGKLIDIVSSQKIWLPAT

In assay [14] the target is Muscarinic acetylcholine receptor M2 (Homo sapiens) (UniProt P08172).

Sequence of Glycogen synthase kinase-3 beta (Homo sapiens) (P49841 whole entry, looked up): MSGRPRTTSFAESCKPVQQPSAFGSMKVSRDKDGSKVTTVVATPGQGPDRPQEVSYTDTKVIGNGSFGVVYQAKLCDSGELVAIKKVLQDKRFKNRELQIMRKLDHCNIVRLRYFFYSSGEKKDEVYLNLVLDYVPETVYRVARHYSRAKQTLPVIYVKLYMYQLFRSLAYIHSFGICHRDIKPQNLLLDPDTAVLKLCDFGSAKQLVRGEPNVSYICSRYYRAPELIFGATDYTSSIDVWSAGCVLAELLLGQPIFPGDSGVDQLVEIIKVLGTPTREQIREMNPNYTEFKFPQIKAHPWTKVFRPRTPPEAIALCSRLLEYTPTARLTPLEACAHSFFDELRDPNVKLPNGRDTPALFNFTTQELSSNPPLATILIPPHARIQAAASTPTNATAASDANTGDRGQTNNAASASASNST
Sequence of Ephrin type-A receptor 2 (Homo sapiens) (P29317 whole entry): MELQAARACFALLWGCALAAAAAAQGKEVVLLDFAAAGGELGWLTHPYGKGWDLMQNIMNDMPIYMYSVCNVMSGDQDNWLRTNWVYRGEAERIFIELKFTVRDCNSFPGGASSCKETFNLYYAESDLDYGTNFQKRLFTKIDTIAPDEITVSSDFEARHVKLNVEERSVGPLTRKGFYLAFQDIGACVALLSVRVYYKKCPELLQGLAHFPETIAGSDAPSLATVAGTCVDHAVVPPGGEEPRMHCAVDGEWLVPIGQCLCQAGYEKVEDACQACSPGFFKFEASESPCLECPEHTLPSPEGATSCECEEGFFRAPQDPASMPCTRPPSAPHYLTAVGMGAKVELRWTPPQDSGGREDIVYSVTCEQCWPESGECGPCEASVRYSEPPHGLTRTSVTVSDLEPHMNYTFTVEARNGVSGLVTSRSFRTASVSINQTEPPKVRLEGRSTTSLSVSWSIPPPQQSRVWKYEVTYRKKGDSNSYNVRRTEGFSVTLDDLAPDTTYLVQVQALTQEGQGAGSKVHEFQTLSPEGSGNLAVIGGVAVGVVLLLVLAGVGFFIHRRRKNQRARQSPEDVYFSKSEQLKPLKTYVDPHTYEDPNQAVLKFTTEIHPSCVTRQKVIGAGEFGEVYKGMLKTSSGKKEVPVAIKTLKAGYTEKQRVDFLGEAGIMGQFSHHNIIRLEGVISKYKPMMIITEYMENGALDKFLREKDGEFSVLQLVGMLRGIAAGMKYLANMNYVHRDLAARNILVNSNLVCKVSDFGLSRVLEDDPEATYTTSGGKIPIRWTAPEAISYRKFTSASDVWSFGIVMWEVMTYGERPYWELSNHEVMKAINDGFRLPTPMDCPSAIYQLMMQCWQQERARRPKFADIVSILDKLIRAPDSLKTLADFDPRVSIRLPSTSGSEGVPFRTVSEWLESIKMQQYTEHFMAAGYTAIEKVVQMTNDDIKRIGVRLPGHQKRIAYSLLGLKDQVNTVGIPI
Sequence of Alpha-2A adrenergic receptor (Homo sapiens) (P08913 whole entry): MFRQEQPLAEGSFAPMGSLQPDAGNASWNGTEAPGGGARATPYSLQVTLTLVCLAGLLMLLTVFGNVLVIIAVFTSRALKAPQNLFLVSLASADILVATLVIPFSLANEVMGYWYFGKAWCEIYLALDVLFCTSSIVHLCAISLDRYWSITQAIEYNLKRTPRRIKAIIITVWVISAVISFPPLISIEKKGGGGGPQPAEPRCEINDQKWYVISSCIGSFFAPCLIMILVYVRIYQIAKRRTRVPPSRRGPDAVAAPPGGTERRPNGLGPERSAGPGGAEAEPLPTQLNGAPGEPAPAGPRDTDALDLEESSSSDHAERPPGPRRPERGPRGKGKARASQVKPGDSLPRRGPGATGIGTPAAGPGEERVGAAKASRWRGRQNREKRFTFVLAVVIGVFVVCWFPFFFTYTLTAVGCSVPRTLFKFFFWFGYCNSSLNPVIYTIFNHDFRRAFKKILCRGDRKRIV
Sequence of Mitogen-activated protein kinase 8 (Homo sapiens) (P45983 whole entry): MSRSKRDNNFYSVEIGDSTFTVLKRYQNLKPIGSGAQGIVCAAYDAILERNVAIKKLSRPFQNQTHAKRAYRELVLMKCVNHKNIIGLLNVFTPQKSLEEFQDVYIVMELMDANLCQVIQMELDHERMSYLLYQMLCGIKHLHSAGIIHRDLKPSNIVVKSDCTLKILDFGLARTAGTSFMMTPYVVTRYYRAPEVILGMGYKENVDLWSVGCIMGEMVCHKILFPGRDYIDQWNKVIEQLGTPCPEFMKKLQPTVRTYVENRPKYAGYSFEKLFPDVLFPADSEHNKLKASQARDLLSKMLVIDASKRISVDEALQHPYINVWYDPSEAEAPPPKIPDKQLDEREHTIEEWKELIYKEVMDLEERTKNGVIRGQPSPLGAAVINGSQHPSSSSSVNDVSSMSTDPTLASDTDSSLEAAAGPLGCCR
Sequence of MAP kinase-activated protein kinase 2 (Homo sapiens) (P49137 whole entry, looked up): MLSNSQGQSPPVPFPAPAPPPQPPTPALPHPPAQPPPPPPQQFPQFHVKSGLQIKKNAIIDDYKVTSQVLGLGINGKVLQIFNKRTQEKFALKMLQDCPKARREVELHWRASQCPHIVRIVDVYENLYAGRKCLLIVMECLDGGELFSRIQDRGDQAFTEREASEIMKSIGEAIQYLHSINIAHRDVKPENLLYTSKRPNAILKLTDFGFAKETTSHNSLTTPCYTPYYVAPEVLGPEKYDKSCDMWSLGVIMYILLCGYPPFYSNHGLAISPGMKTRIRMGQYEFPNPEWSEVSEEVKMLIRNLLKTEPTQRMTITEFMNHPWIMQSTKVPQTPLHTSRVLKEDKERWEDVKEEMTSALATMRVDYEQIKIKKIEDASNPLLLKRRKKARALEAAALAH

On to `CCOC(=O)c1cc2cc(-c3cc(C(=O)NCc4ccc(C(=O)O)cc4)nn3C)ccc2[nH]1` [BI 4394], for which the residual activity in [1] was 1%; in assay [2] it was 85%; in [3], 100%; in [4], 49%; in [6], 87%; in assay [7] it was 6%. Besides, the residual activity in assay [8] is 56%; in assay [9], 17%; in assay [10] it was 8%; in assay [12], 24%; in assay [13] it was 94%. The inhibition (usually the drop in the measured response relative to a control, in per cent) in [5] is 12.3%; in [11], -5.04%.
For `Cn1nc(C(=O)NCc2ccc(C(=O)O)cc2)cc1-c1ccc2[nH]ccc2c1` [BI 4395], in [14], the inhibition was -8.35%.
